Assay results published in patent US10350334B2, “Catheter locking solution having antimicrobial and anticoagulation properties” (Becton, Dickinson and Company, priority 2009, dated 2019).

Legend:
C. albicans = experiment: Minimum Biofilm Inhibitory Concentration (MBIC) test; assay type: cell-based, Candida albicans; conditions: for MBIC: adhered cells, 24 hours incubation; for MBIC Assuming 2 mL lock volume: amount in 2 mL lock volume
Experimental: To further evaluate the efficacy of local anesthetics in antimicrobial lock solutions of the present invention, the minimum concentration at which these drugs can inhibit biofilm growth was tested. The local anesthetics identified in Table 4 were tested against three different species of bacteria identified in Table 3 to assess the antimicrobial efficacy against adhered microbes. It is known that adhered microbes, or biofilms, can be more resistant to antimicrobials than planktonic cells.
Experiments were conducted against adhered microbes as follows: first, a test tube containing 10 mL of sterile TSB was inocubated with BD BBL™ Qualiswab™, with the strain of interest. The tube was placed in an incubator at 37° C. overnight. The next day, a flask containing 25 mL of sterile TSB (or Sabouraud Dextrose Broth (SDB) for fungal species) was inoculated with 1 mL of bacterial suspension. The flask was placed in an incubator at 37° C. and shaken at 150 RPM. The next day a new flask containing 25 mL of TSB (or SDB) media was inoculated with 1 mL from the previous culture. The bacterial or fungal species were allowed to grow to log phase.
After the microbes entered the log phase, their concentration was checked to ensure that they had reached a minimum of 1×10^8 CFU/mL per a 0.5 MacFarland standard. Microbes were diluted to a concentration of 1×10^5 CFU/mL using a nephelometer and 200 μL of the microbial suspensions were plated on each of the wells of a 96 well plate. The plate was incubated in a standard incubator at 37° C. for 2 hours to allow for microbial cell adhesion. Next, dilutions of the desired concentrations of antimicrobials were prepared. In a separate, blank plate, 1:2 serial dilutions were prepared with the highest concentration of the antimicrobial to the left of the plate, decreasing in concentration towards the right of the plate. For example, 170 μL of the highest concentration of an antimicrobial was dispensed in column 1 (left of plate). Each of the rest of the columns received 170 μL of saline. Column 2 received 170 μL of antimicrobial, making for a 1:2 dilution (or 50% of original concentration). Contents of Column 2 were then transferred to 3, then from 3 to 4, and so forth. Each well was supplemented with 20% media (TSB for S. epidermidis and P. aeruginosa and SDB for C. albicans), thereby ensuring the viability of the cells over the test time period (24 hours). Positive control wells had 20% media in saline. The bacterial plate was removed from the incubator, and bacterial suspension discarded (adhered cells remain on plate). The antimicrobial formulations identified in Table 4 were then added to the bacterial plate and incubated in a standard incubator at 37° C. for 24 hours. After this time period, solutions in the plate were discarded and plates were rinsed with 200 μL of saline. The cells were then fixed with 200 μL of 95% ethanol for 30 minutes, and allowed to air dry for 10 minutes. Next, the cells were stained for 20 minutes with 250 μL of a filtered solution of 2% crystal violet dye. The plates were then rinsed three times with water, and the 2% crystal violet dye was solubilized with 300 μL of 95% ethanol. The plates were allowed to stand for 10 minutes to complete solubilization and then the plates were read on a spectrophotometer at 570 nm absorbance, wherein high absorbance readings of >0.600 indicated microbial growth. Columns in the plate that had no growth were recorded as the […] (MBIC). FIG. 2 illustrates the MBIC corresponding to the specific local anesthetics.

Candida albicans biofilm = experiment: Catheter biofilm eradication (catheter segment test) on silicone tubing; assay type: cell-based; conditions: 1 hour, silicone catheter segments
Experimental: (§1) To understand the antimicrobial effects of the local anesthetics used in the lock solution of the present invention in a clinical setting, a biofilm was grown on silicone catheter-like tubing and treated with various concentrations of local anesthetics. First, a sterile silicone catheter-like tube containing 10 mL TSB media was inoculated with a BD BBL™ Qualiswab™, and placed in an incubator at 37° C. overnight. The next day, a sterile flask containing 25 mL TSB (for bacterial species) or 25 mL SDB (for fungal species) was inoculated with the cultured cells. The morning of the experiment, a new flask containing 25 mL of media was inoculated with the new overnight suspension. These steps were taken to ensure that cells were in the log phase, which for S. epidermidis was ˜3-4 hours, and for C. albicans was around ˜18 hrs. […] Microbial concentrations were adjusted to 1×10^5 CFU/mL by dilution with appropriate media. Silicone catheter-like tubing was terminally sterilized by autoclaving the tube for 45 minutes at 121° C. The sterilized catheter-like tubing was inoculated with 1×10^5 CFU/mL for 2 hours under continuous flow. Continuous flow was created by using a peristaltic pump, in which bacterial suspension was flowed through the catheter segments into a waste reservoir. After the 2 hour time period, the same set up was used to pump TSB media through the tubing for an additional 24 hours to allow biofilm to form on the walls of the catheter lumen. After 24 hours, sterilized saline was pumped through the lumen for 30 minutes to rinse the catheters. Catheters were then cut into 1 inch segments using sterile techniques. Catheter segments were dropped into sterile tubes containing 4 mL of antimicrobials, and incubated in a 37° C. incubator shaker for 1 hour. Segments were removed from treatment tubes and placed into new tubes filled with 6 mL of sterile saline. Each segment was swabbed with a sterile swab and both the tube and the swab were sonicated (Ultrasonic cleaner VWR Model 250T) for 3 minutes. Tubes and swabs were then vortexed (Fisher Scientific Vortex Mixer #02-215-365) for 30 seconds each. One hundred microliters of suspension was plated onto TSB agar plates (SDB for fungal species). The remaining 5.9 mL of suspension was passed through 0.4 μm filters and filters were placed on TSB plates. This step was taken to ensure that all possible bacteria were being recovered. All TSB plates were then incubated at 37° C. in a static incubator for 24-48 hours, at which time colony forming units were counted.

[1] = test system: Staphylococcus epidermidis biofilm; experiment: as above; assay type: cell-based; conditions: 1 hour, silicone catheter segments
Experimental: as §1

Structure (SMILES) | MBIC (C. albicans) | MBIC Assuming 2 mL lock volume (C. albicans) | eradication of established biofilm (Candida albicans biofilm; 30 mg/mL) | Log reduction of established biofilm ([1]; 30 mg/mL) | Log reduction of established biofilm (Candida albicans biofilm) | Log reduction of established biofilm ([1]; 16 mg/mL)
CCCCNc1ccc(C(=O)OCCN(C)C)cc1.Cl [Tetracaine, Tetracaine HCl] | 0.24 mg/mL | 0.48 mg | completely eradicated | 1.7 Log |  | 
CCCCN1CCCCC1C(=O)Nc1c(C)cccc1C.Cl (centres unmarked) [Bupivacaine, Bupivacaine HCl] | No inhibition | No inhibition |  |  | ~1 Log | ~0.5 Log
